How the values were obtained:
Type in all cases: in vivo
[1] = system: Myzus persicae (Green Peach Aphid); test: Myzus persicae (green peach aphid) feeding/contact activity, sunflower leaf discs; conditions: foliar, 144 h, application rate 200 ppm, aphid population of mixed ages, 6 days after infestation
Procedure: Myzus persicae (Green Peach Aphid): Feeding/Contact Activity
Sunflower leaf discs were placed onto agar in a 24-well microtiter plate and sprayed with aqueous test solutions prepared from 10,000 ppm DMSO stock solutions. After drying, the leaf discs were infested with an aphid population of mixed ages. The samples were assessed for mortality 6 days after infestation.

[2] = system: Myzus persicae (Green Peach Aphid); test: Myzus persicae intrinsic activity, sucrose solution under Parafilm; conditions: 120 h, test rate 12 ppm, 5 days after infestation
Description: Myzus persicae (Green Peach Aphid). Intrinsic Activity
Test compounds prepared from 10,000 ppm DMSO stock solutions were applied by pipette into 24-well microtiter plates and mixed with sucrose solution. The plates were closed with a stretched Parafilm. A plastic stencil with 24 holes was placed onto the plate and infested pea seedlings were placed directly on the Parafilm. The infested plate was closed with a gel blotting paper and another plastic stencil and then turned upside down. The samples were assessed for mortality 5 days after infestation.

[3] = system: Myzus persicae (Green Peach Aphid); test: Myzus persicae systemic activity, pea seedling roots in test solution; conditions: 144 h, test rate 24 ppm, systemic via pea seedling roots, 6 days
Procedure: Myzus persicae (Green Peach Aphid). Systemic Activity
Roots of pea seedlings infested with an aphid population of mixed ages were placed directly into aqueous test solutions prepared from 10,000 ppm DMSO stock solutions. The samples were assessed for mortality 6 days after placing seedlings into test solutions.

COc1ccc(-n2c3cccn(Cc4ccc(Cl)nc4)c-3nc2=O)cc1 [Compound A8, 4-[(6-chloro-3-pyridyl)methyl]-1-(4-methoxyphenyl)imidazo[4,5-b]pyridin-2-one]
mortality at 200 ppm [1]: ≥ 80%
mortality at 12 ppm [2]: ≥ 80%

O=c1nc2n(Cc3ccc(Cl)nc3)cccc-2n1-c1cncc(Cl)c1 [Compound A22, 1-(5-chloro-3-pyridyl)-4-[(6-chloro-3-pyridyl)methyl]imidazo[4,5-b]pyridin-2-one]
mortality at 24 ppm [3]: ≥ 80%
mortality at 12 ppm [2]: ≥ 80%

O=c1nc2n(Cc3ccc(Cl)nc3)cccc-2n1-c1cccc(-c2ccccc2)c1 [Compound A1, 4-[(6-chloro-3-pyridyl)methyl]-1-(3-phenylphenyl)imidazo[4,5-b]pyridin-2-one]
mortality at 200 ppm [1]: ≥ 80%
mortality at 12 ppm [2]: ≥ 80%

Cc1cccc(-n2c3cccn(Cc4ccc(Cl)nc4)c-3nc2=O)c1 [Compound A29, 4-[(6-chloro-3-pyridyl)methyl]-1-(m-tolyl)imidazo[4,5-b]pyridin-2-one]
mortality at 200 ppm [1]: ≥ 80%
mortality at 12 ppm [2]: ≥ 80%

O=c1nc2n(Cc3ccc(Cl)nc3)cccc-2n1-c1csc(C(F)F)c1 [Compound A68, 4-[(6-chloro-3-pyridyl)methyl]-1-[5-(difluoromethyl)-3-thienyl]imidazo[4,5-b]pyridin-2-one]
mortality at 12 ppm [2]: ≥ 80%

O=c1nc2n(Cc3ccc(Cl)nc3)cccc-2n1-c1ccc(C(F)(F)F)nc1 [Compound A24, 4-[(6-chloro-3-pyridyl)methyl]-1-[6-(trifluoromethyl)-3-pyridyl]imidazo[4,5-b]pyridin-2-one]
mortality at 24 ppm [3]: ≥ 80%
mortality at 12 ppm [2]: ≥ 80%

COc1cccc(-n2c3cccn(Cc4ccc(Cl)nc4)c-3nc2=O)c1 [Compound A7, 4-[(6-chloro-3-pyridyl)methyl]-1-(3-methoxyphenyl)imidazo[4,5-b]pyridin-2-one]
mortality at 200 ppm [1]: ≥ 80%
mortality at 12 ppm [2]: ≥ 80%

COC(=O)c1ccc(-n2c3cccn(Cc4ccc(Cl)nc4)c-3nc2=O)o1 [Compound A77, methyl 5-[4-[(6-chloro-3-pyridyl)methyl]-2-oxo-imidazo[4,5-b]pyridin-1-yl]furan-2-carboxylate]
mortality at 12 ppm [2]: ≥ 80%

Cc1ccc(-n2c3cccn(Cc4ccc(Cl)nc4)c-3nc2=O)s1 [Compound A67, 4-[(6-chloro-3-pyridyl)methyl]-1-(5-methyl-2-thienyl)imidazo[4,5-b]pyridin-2-one]
mortality at 200 ppm [1]: ≥ 80%
mortality at 12 ppm [2]: ≥ 80%

O=c1nc2n(Cc3ccc(Cl)nc3)cccc-2n1-c1ccc(Cl)cc1 [Compound A9, 1-(4-chlorophenyl)-4-[(6-chloro-3-pyridyl)methyl]imidazo[4,5-b]pyridin-2-one]
mortality at 200 ppm [1]: ≥ 80%
mortality at 12 ppm [2]: ≥ 80%

Cn1cc(-n2c3cccn(Cc4ccc(Cl)nc4)c-3nc2=O)c(C(F)F)n1 [Compound A95, 4-[(6-chloro-3-pyridyl)methyl]-1-[3-(difluoromethyl)-1-methyl-pyrazol-4-yl]imidazo[4,5-b]pyridin-2-one]
mortality at 24 ppm [3]: ≥ 80%
mortality at 200 ppm [1]: ≥ 80%
mortality at 12 ppm [2]: ≥ 80%

Cn1ncc(-n2c3cccn(Cc4ccc(Cl)nc4)c-3nc2=O)c1C(F)F [Compound A97, 4-[(6-chloro-3-pyridyl)methyl]-1-[5-(difluoromethyl)-1-methyl-pyrazol-4-yl]imidazo[4,5-b]pyridin-2-one]
mortality at 24 ppm [3]: ≥ 80%
mortality at 200 ppm [1]: ≥ 80%
mortality at 12 ppm [2]: ≥ 80%

O=c1nc2n(Cc3ccc(Cl)nc3)cccc-2n1-c1ccsc1 [Compound A47, 4-[(6-chloro-3-pyridyl)methyl]-1-(3-thienyl)imidazo[4,5-b]pyridin-2-one]
mortality at 12 ppm [2]: ≥ 80%

O=c1nc2n(Cc3ccc(Cl)nc3)cccc-2n1-c1nnc(C2CC2)o1 [Compound A79, 4-[(6-chloro-3-pyridyl)methyl]-1-(5-cyclopropyl-1,3,4-oxadiazol-2-yl)imidazo[4,5-b]pyridin-2-one]
mortality at 200 ppm [1]: ≥ 80%
mortality at 12 ppm [2]: ≥ 80%

O=c1nc2n(Cc3ccc(Cl)nc3)cccc-2n1-c1ccccc1Cl [Compound A38, 1-(2-chlorophenyl)-4-[(6-chloro-3-pyridyl)methyl]imidazo[4,5-b]pyridin-2-one]
mortality at 200 ppm [1]: ≥ 80%
mortality at 12 ppm [2]: ≥ 80%

O=c1nc2n(Cc3ccc(Cl)nc3)cccc-2n1-c1ccnc(C(F)(F)F)c1 [Compound A14, 4-[(6-chloro-3-pyridyl)methyl]-1-[2-(trifluoromethyl)-4-pyridyl]imidazo[4,5-b]pyridin-2-one]
mortality at 200 ppm [1]: ≥ 80%
mortality at 12 ppm [2]: ≥ 80%

O=c1nc2n(Cc3ccc(Cl)nc3)cccc-2n1-c1ncccn1 [Compound A23, 4-[(6-chloro-3-pyridyl)methyl]-1-pyrimidin-2-yl-imidazo[4,5-b]pyridin-2-one]
mortality at 200 ppm [1]: ≥ 80%

O=c1nc2n(Cc3ccc(Cl)nc3)cccc-2n1-c1cnn(-c2ccccc2)c1 [Compound A5, 4-[(6-chloro-3-pyridyl)methyl]-1-(1-phenylpyrazol-4-yl)imidazo[4,5-b]pyridin-2-one]
mortality at 200 ppm [1]: ≥ 80%
mortality at 12 ppm [2]: ≥ 80%

O=c1nc2n(Cc3ccc(Cl)nc3)cccc-2n1-c1nccnc1C(F)(F)F [Compound A42, 4-[(6-chloro-3-pyridyl)methyl]-1-[3-(trifluoromethyl)pyrazin-2-yl]imidazo[4,5-b]pyridin-2-one]
mortality at 200 ppm [1]: ≥ 80%
mortality at 12 ppm [2]: ≥ 80%

N#Cc1ccc(-n2c3cccn(Cc4ccc(Cl)nc4)c-3nc2=O)cc1 [Compound A10, 4-[4-[(6-chloro-3-pyridyl)methyl]-2-oxo-imidazo[4,5-b]pyridin-1-yl]benzonitrile]
mortality at 200 ppm [1]: ≥ 80%
mortality at 12 ppm [2]: ≥ 80%

O=c1nc2n(Cc3ccc(Cl)nc3)cccc-2n1-c1cncnc1 [Compound A16, 4-[(6-chloro-3-pyridyl)methyl]-1-pyrimidin-5-yl-imidazo[4,5-b]pyridin-2-one]
mortality at 24 ppm [3]: ≥ 80%
mortality at 12 ppm [2]: ≥ 80%

O=c1nc2n(Cc3ccc(Cl)nc3)cccc-2n1-c1ccc(Cl)cc1Cl [Compound A41, 4-[(6-chloro-3-pyridyl)methyl]-1-(2,4-dichlorophenyl)imidazo[4,5-b]pyridin-2-one]
mortality at 12 ppm [2]: ≥ 80%

N#Cc1cccc(-n2c3cccn(Cc4ccc(Cl)nc4)c-3nc2=O)c1 [Compound A11, 3-[4-[(6-chloro-3-pyridyl)methyl]-2-oxo-imidazo[4,5-b]pyridin-1-yl]benzonitrile]
mortality at 200 ppm [1]: ≥ 80%
mortality at 12 ppm [2]: ≥ 80%

O=c1nc2n(Cc3ccc(Cl)nc3)cccc-2n1-c1cc(C(F)F)ccn1 [Compound A19, 4-[(6-chloro-3-pyridyl)methyl]-1-[4-(difluoromethyl)-2-pyridyl]imidazo[4,5-b]pyridin-2-one]
mortality at 12 ppm [2]: ≥ 80%

Cc1ccc(C)c(-n2c3cccn(Cc4ccc(Cl)nc4)c-3nc2=O)c1 [Compound A51, 4-[(6-chloro-3-pyridyl)methyl]-1-(2,5-dimethylphenyl)imidazo[4,5-b]pyridin-2-one]
mortality at 12 ppm [2]: ≥ 80%

O=c1nc2n(Cc3ccc(Cl)nc3)cccc-2n1-c1cccc(Cl)c1 [Compound A6, 1-(3-chlorophenyl)-4-[(6-chloro-3-pyridyl)methyl]imidazo[4,5-b]pyridin-2-one]
mortality at 200 ppm [1]: ≥ 80%
mortality at 12 ppm [2]: ≥ 80%

O=c1nc2n(Cc3ccc(Cl)nc3)cccc-2n1-c1ccccn1 [Compound A27, 4-[(6-chloro-3-pyridyl)methyl]-1-(2-pyridyl)imidazo[4,5-b]pyridin-2-one]
mortality at 24 ppm [3]: ≥ 80%
mortality at 12 ppm [2]: ≥ 80%

O=c1nc2n(Cc3ccc(Cl)nc3)cccc-2n1-c1cccc(C(F)(F)F)c1 [Compound A21, 4-[(6-chloro-3-pyridyl)methyl]-1-[3-(trifluoromethyl)phenyl]imidazo[4,5-b]pyridin-2-one]
mortality at 200 ppm [1]: ≥ 80%
mortality at 12 ppm [2]: ≥ 80%

O=c1nc2n(Cc3ccc(Cl)nc3)cccc-2n1-c1cnn(C2COC2)c1 [Compound A87, 4-[(6-chloro-3-pyridyl)methyl]-1-[1-(oxetan-3-yl)pyrazol-4-yl]imidazo[4,5-b]pyridin-2-one]
mortality at 200 ppm [1]: ≥ 80%

O=c1nc2n(Cc3ccc(Cl)nc3)cccc-2n1-c1cc(F)cs1 [Compound A73, 4-[(6-chloro-3-pyridyl)methyl]-1-(4-fluoro-2-thienyl)imidazo[4,5-b]pyridin-2-one]
mortality at 12 ppm [2]: ≥ 80%

CCn1nccc1-n1c2cccn(Cc3ccc(Cl)nc3)c-2nc1=O [Compound A89, 4-[(6-chloro-3-pyridyl)methyl]-1-(2-ethylpyrazol-3-yl)imidazo[4,5-b]pyridin-2-one]
mortality at 12 ppm [2]: ≥ 80%

O=c1nc2n(Cc3ccc(Cl)nc3)cccc-2n1-c1ccccc1C(F)(F)F [Compound A81, 4-[(6-chloro-3-pyridyl)methyl]-1-[2-(trifluoromethyl)phenyl]imidazo[4,5-b]pyridin-2-one]
mortality at 200 ppm [1]: ≥ 80%
mortality at 12 ppm [2]: ≥ 80%

O=c1nc2n(Cc3ccc(Cl)nc3)cccc-2n1-c1csc(C(F)(F)F)c1 [Compound A71, 4-[(6-chloro-3-pyridyl)methyl]-1-[5-(trifluoromethyl)-3-thienyl]imidazo[4,5-b]pyridin-2-one]
mortality at 12 ppm [2]: ≥ 80%

O=c1nc2n(Cc3cnc(Cl)s3)cccc-2n1-c1ccccc1 [Compound A36, 4-[(2-chlorothiazol-5-yl)methyl]-1-phenyl-imidazo[4,5-b]pyridin-2-one]
mortality at 200 ppm [1]: ≥ 80%
mortality at 12 ppm [2]: ≥ 80%
